According to ChEMBL document CHEMBL5331074, “Design and synthesis of new adamantyl derivatives as promising antiproliferative agents” (Eur J Med Chem, 2023):
Activity calls are given as the source filed them. The calls are words filed in the database; no cut-off is given here.

Experiments:
[1] = target: Ectonucleotide pyrophosphatase/phosphodiesterase family member 3 (Homo sapiens, UniProt O14638); experiment: Inhibition of human NPP3 expressed in COS-7 cells using pNP-TMP as substrate preincubated for 10 mins followed by substrate addition and measured after 35 mins by microplate reader analysis; assay type: cell-based
HT-29 [2] = experiment: Cytotoxicity against human HT-29 assessed as cell growth inhibition; assay type: functional, cell-based
HT-29 [3] = experiment: Cytotoxicity against human HT-29 assessed as mean growth inhibition; assay type: functional
HL-60(TB) = experiment: Cytotoxicity against human HL-60(TB) cells assessed as cell growth inhibition; assay type: functional, cell-based
K562 = experiment: Cytotoxicity against human K562 cells assessed as cell growth inhibition; assay type: functional, cell-based
RPMI-8226 = experiment: Cytotoxicity against human RPMI-8226 cells assessed as cell growth inhibition; assay type: functional, cell-based
SR = experiment: Cytotoxicity against human SR cells assessed as cell growth inhibition; assay type: functional, cell-based
A549 = experiment: Cytotoxicity against human A549 cells assessed as cell growth inhibition; assay type: functional, cell-based
HOP-62 = experiment: Cytotoxicity against human HOP-62 cells assessed as cell growth inhibition; assay type: functional, cell-based
HOP-92 = experiment: Cytotoxicity against human HOP-92 cells assessed as cell growth inhibition; assay type: functional, cell-based
NCI-H226 = experiment: Cytotoxicity against human NCI-H226 cells assessed as cell growth inhibition; assay type: functional, cell-based
NCI-H23 = experiment: Cytotoxicity against human NCI-H23 cells assessed as cell growth inhibition; assay type: functional, cell-based
NCI-H322M = experiment: Cytotoxicity against human NCI-H322M cells assessed as cell growth inhibition; assay type: functional, cell-based
NCI-H460 = experiment: Cytotoxicity against human NCI-H460 cells assessed as cell growth inhibition; assay type: functional, cell-based
NCI-H522 = experiment: Cytotoxicity against human NCI-H522 cells assessed as cell growth inhibition; assay type: functional, cell-based
COLO 205 = experiment: Cytotoxicity against human COLO 205 cells assessed as cell growth inhibition; assay type: functional, cell-based
HCC 2998 = experiment: Cytotoxicity against human HCC 2998 cells assessed as cell growth inhibition; assay type: functional, cell-based
HCT-116 = experiment: Cytotoxicity against human HCT-116 cells assessed as cell growth inhibition; assay type: functional, cell-based
HCT-15 = experiment: Cytotoxicity against human HCT-15 cells assessed as cell growth inhibition; assay type: functional, cell-based
HT-29 [4] = experiment: Cytotoxicity against human HT-29 cells assessed as cell growth inhibition; assay type: functional, cell-based
KM12 = experiment: Cytotoxicity against human KM12 cells assessed as cell growth inhibition; assay type: functional, cell-based
SW-620 = experiment: Cytotoxicity against human SW620 cells assessed as cell growth inhibition; assay type: functional, cell-based
SF-268 = experiment: Cytotoxicity against human SF-268 cells assessed as cell growth inhibition; assay type: functional, cell-based
SF-295 = experiment: Cytotoxicity against human SF-295 cells assessed as cell growth inhibition; assay type: functional, cell-based
SF-539 = experiment: Cytotoxicity against human SF-539 cells assessed as cell growth inhibition; assay type: functional, cell-based
SNB-19 = experiment: Cytotoxicity against human SNB-19 cells assessed as cell growth inhibition; assay type: functional, cell-based
SNB-75 = experiment: Cytotoxicity against human SNB-75 cells assessed as cell growth inhibition; assay type: functional, cell-based
U-251 = experiment: Cytotoxicity against human U-251 cells assessed as cell growth inhibition; assay type: functional, cell-based
LOX IMVI = experiment: Cytotoxicity against human LOX IMVI cells assessed as cell growth inhibition; assay type: functional, cell-based
Malme-3M = experiment: Cytotoxicity against human Malme-3M cells assessed as cell growth inhibition; assay type: functional, cell-based
M14 = experiment: Cytotoxicity against human M14 cells assessed as cell growth inhibition; assay type: functional, cell-based
MDA-MB-435 = experiment: Cytotoxicity against human MDA-MB-435 cells assessed as cell growth inhibition; assay type: functional, cell-based
SK-MEL-2 = experiment: Cytotoxicity against human SK-MEL-2 cells assessed as cell growth inhibition; assay type: functional, cell-based
SK-MEL-28 = experiment: Cytotoxicity against human SK-MEL-28 cells assessed as cell growth inhibition; assay type: functional, cell-based
SK-MEL-5 = experiment: Cytotoxicity against human SK-MEL-5 cells assessed as cell growth inhibition; assay type: functional, cell-based
UACC-257 = experiment: Cytotoxicity against human UACC-257 cells assessed as cell growth inhibition; assay type: functional, cell-based
UACC-62 = experiment: Cytotoxicity against human UACC-62 cells assessed as cell growth inhibition; assay type: functional, cell-based
IGROV-1 = experiment: Cytotoxicity against human IGROV-1 cells assessed as cell growth inhibition; assay type: functional, cell-based
OVCAR-4 = experiment: Cytotoxicity against human OVCAR-4 cells assessed as cell growth inhibition; assay type: functional, cell-based
OVCAR-5 = experiment: Cytotoxicity against human OVCAR-5 cells assessed as cell growth inhibition; assay type: functional, cell-based
OVCAR-8 = experiment: Cytotoxicity against human OVCAR-8 cells assessed as cell growth inhibition; assay type: functional, cell-based
NCI/ADR-RES = experiment: Cytotoxicity against human NCI/ADR-RES cells assessed as cell growth inhibition; assay type: functional, cell-based
SK-OV-3 = experiment: Cytotoxicity against human SK-OV-3 cells assessed as cell growth inhibition; assay type: functional, cell-based
786-0 = experiment: Cytotoxicity against human 786-0 cells assessed as cell growth inhibition; assay type: functional, cell-based
A498 = experiment: Cytotoxicity against human A498 cells assessed as cell growth inhibition; assay type: functional, cell-based
ACHN = experiment: Cytotoxicity against human ACHN cells assessed as cell growth inhibition; assay type: functional, cell-based
RXF 393 = experiment: Cytotoxicity against human RXF 393 cells assessed as cell growth inhibition; assay type: functional, cell-based
SN12C = experiment: Cytotoxicity against human SN12C cells assessed as cell growth inhibition; assay type: functional, cell-based
TK-10 = experiment: Cytotoxicity against human TK-10 cells assessed as cell growth inhibition; assay type: functional, cell-based
UO-31 = experiment: Cytotoxicity against human UO-31 cells assessed as cell growth inhibition; assay type: functional, cell-based
PC-3 = experiment: Cytotoxicity against human PC-3 cells assessed as cell growth inhibition; assay type: functional, cell-based
DU-145 = experiment: Cytotoxicity against human DU-145 cells assessed as cell growth inhibition; assay type: functional, cell-based
MCF7 = experiment: Cytotoxicity against human MCF7 cells assessed as cell growth inhibition; assay type: functional, cell-based
MDA-MB-231 = experiment: Cytotoxicity against human MDA-MB-231 cells assessed as cell growth inhibition; assay type: functional, cell-based
Hs-578T = experiment: Cytotoxicity against human Hs-578T cells assessed as cell growth inhibition; assay type: functional, cell-based
BT-549 = experiment: Cytotoxicity against human BT-549 cells assessed as cell growth inhibition; assay type: functional, cell-based
T47D = experiment: Cytotoxicity against human T47D cells assessed as cell growth inhibition; assay type: functional, cell-based
MDA-MB-468 = experiment: Cytotoxicity against human MDA-MB-468 cells assessed as cell growth inhibition; assay type: functional, cell-based
[5] = Cytotoxicity against human hTERT-HME1 cells assessed as cell growth inhibition; assay type: toxicity, cell-based
[6] = Selectivity index, ratio of IC50 for cytotoxicity against human hTERT-HME1 cells to IC50 for cytotoxicity against human BT-549 cells
Autotaxin = Autotaxin (Homo sapiens, UniProt Q13822); experiment: Inhibition of human NPP2 expressed in COS-7 cells using pNP-TMP as substrate preincubated for 10 mins followed by substrate addition and measured after 35 mins by microplate reader analysis; assay type: cell-based
Carbonic anhydrase 9 = Carbonic anhydrase 9 (Homo sapiens, UniProt Q16790)
Description: Inhibition of Carbonic anhydrase 9 (unknown origin) using p-nitrophenyl acetate as substrate preincubated for 10 mins followed by substrate addition and measured after 30 mins by microplate reader method

Sequence of Ectonucleotide pyrophosphatase/phosphodiesterase family member 3 (O14638 whole entry): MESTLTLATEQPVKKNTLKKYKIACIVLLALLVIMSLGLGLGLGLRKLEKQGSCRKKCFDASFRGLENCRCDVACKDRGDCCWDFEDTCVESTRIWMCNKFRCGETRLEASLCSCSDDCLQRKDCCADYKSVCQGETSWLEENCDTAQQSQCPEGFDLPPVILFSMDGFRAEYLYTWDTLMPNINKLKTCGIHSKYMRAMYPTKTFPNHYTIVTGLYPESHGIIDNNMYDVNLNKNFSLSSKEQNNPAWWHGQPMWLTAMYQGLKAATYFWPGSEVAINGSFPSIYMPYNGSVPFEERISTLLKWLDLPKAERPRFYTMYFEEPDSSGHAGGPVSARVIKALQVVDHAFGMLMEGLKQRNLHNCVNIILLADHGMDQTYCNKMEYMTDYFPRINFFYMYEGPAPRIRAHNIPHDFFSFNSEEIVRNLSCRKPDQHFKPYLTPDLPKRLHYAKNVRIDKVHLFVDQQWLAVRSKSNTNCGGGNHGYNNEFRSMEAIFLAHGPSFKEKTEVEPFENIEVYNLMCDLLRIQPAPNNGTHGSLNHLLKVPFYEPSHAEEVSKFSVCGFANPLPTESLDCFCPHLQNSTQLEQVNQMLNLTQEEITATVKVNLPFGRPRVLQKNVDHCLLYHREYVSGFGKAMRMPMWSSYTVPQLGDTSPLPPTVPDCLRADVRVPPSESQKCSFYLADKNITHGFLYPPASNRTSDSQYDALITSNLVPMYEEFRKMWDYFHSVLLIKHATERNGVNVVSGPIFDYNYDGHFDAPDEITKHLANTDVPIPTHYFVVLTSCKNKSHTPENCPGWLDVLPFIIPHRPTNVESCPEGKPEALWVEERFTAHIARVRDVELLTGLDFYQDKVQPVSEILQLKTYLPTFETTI

Structure (SMILES): O=C(Nc1ccc(OS(=O)(=O)c2ccccc2)cc1)C12CC3CC(CC(C3)C1)C2
- IC50 [1]: 3 µM
- inhibition (HT-29 [2]): Active
- inhibition (INH) (HT-29 [3]): 85.4%
- IC50 (HL-60(TB)): 8.39 µM
- IC50 (K562): 0.32 µM
- IC50 (RPMI-8226): 0.4 µM
- IC50 (SR): 0.58 µM
- IC50 (A549): 6.9 µM
- IC50 (HOP-62): > 100 µM
- IC50 (HOP-92): 1.87 µM
- IC50 (NCI-H226): 27.7 µM
- IC50 (NCI-H23): 6.68 µM
- IC50 (NCI-H322M): > 100 µM
- IC50 (NCI-H460): 6.1 µM
- IC50 (NCI-H522): 4.36 µM
- IC50 (COLO 205): 0.87 µM
- IC50 (HCC 2998): 5.48 µM
- IC50 (HCT-116): 2.5 µM
- IC50 (HCT-15): 1 µM
- IC50 (HT-29 [4]): 0.4 µM
- IC50 (KM12): 2.1 µM
- IC50 (SW-620): 1.97 µM
- IC50 (SF-268): > 100 µM
- IC50 (SF-295): 8.27 µM
- IC50 (SF-539): 0.96 µM
- IC50 (SNB-19): > 100 µM
- IC50 (SNB-75): 7.16 µM
- IC50 (U-251): 4.81 µM
- IC50 (LOX IMVI): 4.38 µM
- IC50 (Malme-3M): > 100 µM
- IC50 (M14): 7.2 µM
- IC50 (MDA-MB-435): > 100 µM
- IC50 (SK-MEL-2): > 100 µM
- IC50 (SK-MEL-28): > 100 µM
- IC50 (SK-MEL-5): 3.12 µM
- IC50 (UACC-257): 13.5 µM
- IC50 (UACC-62): 6.47 µM
- IC50 (IGROV-1): > 100 µM
- IC50 (OVCAR-4): 8.38 µM
- IC50 (OVCAR-5): > 100 µM
- IC50 (OVCAR-8): > 100 µM
- IC50 (NCI/ADR-RES): 5.75 µM
- IC50 (SK-OV-3): > 100 µM
- IC50 (786-0): 3.8 µM
- IC50 (A498): 2.04 µM
- IC50 (ACHN): > 100 µM
- IC50 (RXF 393): 5.12 µM
- IC50 (SN12C): > 100 µM
- IC50 (TK-10): > 100 µM
- IC50 (UO-31): 18.7 µM
- IC50 (PC-3): 2.9 µM
- IC50 (DU-145): > 100 µM
- IC50 (MCF7): 3.26 µM
- IC50 (MDA-MB-231): 3.79 µM
- IC50 (Hs-578T): 7.29 µM
- IC50 (BT-549): 3.24 µM
- IC50 (T47D): 3.57 µM
- IC50 (MDA-MB-468): 3.8 µM
- IC50 [5]: > 50 µM
- Ratio IC50 [6]: 15.4
- IC50 (Autotaxin): 1.35 µM
- IC50 (Carbonic anhydrase 9): 1.02 µM
